Laboratory results reported in ChEMBL document CHEMBL4507311, “Data for DCP probe A-1155463” (2021).

Legend:
[1] = biological target: Non-receptor tyrosine-protein kinase TYK2 (Homo sapiens) (UniProt P29597); details: Compound concentration 1000.0 nM
[2] = test system: Proto-oncogene tyrosine-protein kinase receptor Ret (Homo sapiens), P07949 [V804M]; details: Compound concentration 1000.0 nM
[3] = biological target: TGF-beta receptor type-2 (Homo sapiens) (UniProt P37173); details: Compound concentration 1000.0 nM
[4] = test system: Phosphatidylinositol 4,5-bisphosphate 3-kinase catalytic subunit alpha isoform (Homo sapiens), P42336 [E545A]; details: Compound concentration 1000.0 nM
[5] = biological target: Serine/threonine-protein kinase PAK 1 (Homo sapiens) (UniProt Q13153); details: Compound concentration 1000.0 nM
Serine/threonine-protein kinase PAK 1 (Homo sapiens), sequence (Q13153 whole entry): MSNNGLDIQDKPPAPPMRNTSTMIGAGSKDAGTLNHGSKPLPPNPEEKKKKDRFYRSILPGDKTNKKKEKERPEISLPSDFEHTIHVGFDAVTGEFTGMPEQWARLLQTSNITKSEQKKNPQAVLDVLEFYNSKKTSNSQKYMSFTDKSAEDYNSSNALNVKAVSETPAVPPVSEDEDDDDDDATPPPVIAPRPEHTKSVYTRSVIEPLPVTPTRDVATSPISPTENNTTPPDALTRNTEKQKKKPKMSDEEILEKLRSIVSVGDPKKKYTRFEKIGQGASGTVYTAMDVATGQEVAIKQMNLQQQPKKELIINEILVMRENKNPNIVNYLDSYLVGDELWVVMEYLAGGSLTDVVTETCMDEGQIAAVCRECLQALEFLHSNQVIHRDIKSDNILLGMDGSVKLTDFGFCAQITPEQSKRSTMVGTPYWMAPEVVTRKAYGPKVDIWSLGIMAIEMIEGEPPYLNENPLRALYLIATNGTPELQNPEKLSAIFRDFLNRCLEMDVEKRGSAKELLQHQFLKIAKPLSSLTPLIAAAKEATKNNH

[6] = biological target: GABA-A receptor; anion channel (Rattus norvegicus) (UniProt O09028+P15431+P18506+P18508+P19969+P20236+P23574+P23576+P28471+P28473+P30191+P62813+P63079+P63138+Q91ZM7+Q9ES14); details: Compound concentration 10.0 uM
[7] = biological target: Alpha-1D adrenergic receptor (Homo sapiens) (UniProt P25100); details: Compound concentration 10.0 uM
[8] = biological target: Misshapen-like kinase 1 (Homo sapiens) (UniProt Q8N4C8); details: Compound concentration 1000.0 nM
[9] = biological target: Cyclin-dependent kinase 2 (Homo sapiens) (UniProt P24941); details: Compound concentration 1000.0 nM
[10] = biological target: Calcium/calmodulin-dependent protein kinase type 1 (Homo sapiens) (UniProt Q14012); details: Compound concentration 1000.0 nM
Calcium/calmodulin-dependent protein kinase type 1 (Homo sapiens), sequence (Q14012 whole entry, looked up): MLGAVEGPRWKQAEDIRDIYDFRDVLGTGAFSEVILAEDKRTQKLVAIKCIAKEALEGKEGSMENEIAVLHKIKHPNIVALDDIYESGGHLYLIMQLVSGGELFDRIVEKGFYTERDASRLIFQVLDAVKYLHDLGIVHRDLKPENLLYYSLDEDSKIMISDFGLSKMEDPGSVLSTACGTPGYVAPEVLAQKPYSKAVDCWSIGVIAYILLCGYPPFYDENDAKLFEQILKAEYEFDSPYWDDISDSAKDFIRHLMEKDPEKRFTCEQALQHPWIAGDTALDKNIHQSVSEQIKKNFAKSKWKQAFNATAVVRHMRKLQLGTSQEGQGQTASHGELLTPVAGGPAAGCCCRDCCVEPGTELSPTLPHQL

[11] = biological target: T1, 5-hydroxytryptamine receptor 1A (Homo sapiens) (UniProt P08908); details: Compound concentration 10.0 uM
T1 sequence (whole entry): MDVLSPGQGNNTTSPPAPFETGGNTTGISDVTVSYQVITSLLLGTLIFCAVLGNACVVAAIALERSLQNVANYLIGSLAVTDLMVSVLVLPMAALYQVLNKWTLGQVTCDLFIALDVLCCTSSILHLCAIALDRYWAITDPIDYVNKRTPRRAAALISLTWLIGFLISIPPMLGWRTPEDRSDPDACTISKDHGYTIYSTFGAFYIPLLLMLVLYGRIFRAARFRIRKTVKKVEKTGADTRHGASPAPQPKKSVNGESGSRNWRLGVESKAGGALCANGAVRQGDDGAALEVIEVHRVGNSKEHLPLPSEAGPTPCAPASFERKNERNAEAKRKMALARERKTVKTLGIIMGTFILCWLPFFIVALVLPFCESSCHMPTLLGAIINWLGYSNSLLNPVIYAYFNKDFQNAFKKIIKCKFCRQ

[12] = biological target: D(3) dopamine receptor (Homo sapiens) (UniProt P35462); details: Compound concentration 10.0 uM
[13] = biological target: Citron Rho-interacting kinase (Homo sapiens) (UniProt O14578); details: Compound concentration 1000.0 nM
[14] = biological target: Casein kinase I isoform alpha (Homo sapiens) (UniProt P48729); details: Compound concentration 1000.0 nM
Casein kinase I isoform alpha (Homo sapiens), sequence (P48729 2-337 limits assumed): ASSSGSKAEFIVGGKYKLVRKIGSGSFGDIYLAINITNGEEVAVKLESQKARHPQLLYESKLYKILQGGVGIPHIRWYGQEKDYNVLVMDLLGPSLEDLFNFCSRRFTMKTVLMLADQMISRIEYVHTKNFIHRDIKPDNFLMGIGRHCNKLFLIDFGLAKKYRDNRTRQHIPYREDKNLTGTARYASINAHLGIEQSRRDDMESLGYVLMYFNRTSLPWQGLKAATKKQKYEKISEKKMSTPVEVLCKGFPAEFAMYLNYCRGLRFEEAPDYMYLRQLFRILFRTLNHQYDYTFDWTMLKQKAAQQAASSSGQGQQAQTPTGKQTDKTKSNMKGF

[15] = biological target: Tyrosine-protein kinase CSK (Homo sapiens) (UniProt P41240); details: Compound concentration 1000.0 nM
[16] = biological target: Serine/threonine-protein kinase 26 (Homo sapiens) (UniProt Q9P289); details: Compound concentration 1000.0 nM
[17] = biological target: Myosin-IIIb (Homo sapiens) (UniProt Q8WXR4); details: Compound concentration 1000.0 nM
[18] = biological target: Mitogen-activated protein kinase kinase kinase 15 (Homo sapiens) (UniProt Q6ZN16); details: Compound concentration 1000.0 nM
[19] = biological target: Tyrosine-protein kinase SYK (Homo sapiens) (UniProt P43405); details: Compound concentration 1000.0 nM
[20] = biological target: Phosphatidylinositol 4-phosphate 3-kinase C2 domain-containing subunit beta (Homo sapiens) (UniProt O00750); details: Compound concentration 1000.0 nM
Phosphatidylinositol 4-phosphate 3-kinase C2 domain-containing subunit beta (Homo sapiens), sequence (O00750 whole entry, the tested form may be a part): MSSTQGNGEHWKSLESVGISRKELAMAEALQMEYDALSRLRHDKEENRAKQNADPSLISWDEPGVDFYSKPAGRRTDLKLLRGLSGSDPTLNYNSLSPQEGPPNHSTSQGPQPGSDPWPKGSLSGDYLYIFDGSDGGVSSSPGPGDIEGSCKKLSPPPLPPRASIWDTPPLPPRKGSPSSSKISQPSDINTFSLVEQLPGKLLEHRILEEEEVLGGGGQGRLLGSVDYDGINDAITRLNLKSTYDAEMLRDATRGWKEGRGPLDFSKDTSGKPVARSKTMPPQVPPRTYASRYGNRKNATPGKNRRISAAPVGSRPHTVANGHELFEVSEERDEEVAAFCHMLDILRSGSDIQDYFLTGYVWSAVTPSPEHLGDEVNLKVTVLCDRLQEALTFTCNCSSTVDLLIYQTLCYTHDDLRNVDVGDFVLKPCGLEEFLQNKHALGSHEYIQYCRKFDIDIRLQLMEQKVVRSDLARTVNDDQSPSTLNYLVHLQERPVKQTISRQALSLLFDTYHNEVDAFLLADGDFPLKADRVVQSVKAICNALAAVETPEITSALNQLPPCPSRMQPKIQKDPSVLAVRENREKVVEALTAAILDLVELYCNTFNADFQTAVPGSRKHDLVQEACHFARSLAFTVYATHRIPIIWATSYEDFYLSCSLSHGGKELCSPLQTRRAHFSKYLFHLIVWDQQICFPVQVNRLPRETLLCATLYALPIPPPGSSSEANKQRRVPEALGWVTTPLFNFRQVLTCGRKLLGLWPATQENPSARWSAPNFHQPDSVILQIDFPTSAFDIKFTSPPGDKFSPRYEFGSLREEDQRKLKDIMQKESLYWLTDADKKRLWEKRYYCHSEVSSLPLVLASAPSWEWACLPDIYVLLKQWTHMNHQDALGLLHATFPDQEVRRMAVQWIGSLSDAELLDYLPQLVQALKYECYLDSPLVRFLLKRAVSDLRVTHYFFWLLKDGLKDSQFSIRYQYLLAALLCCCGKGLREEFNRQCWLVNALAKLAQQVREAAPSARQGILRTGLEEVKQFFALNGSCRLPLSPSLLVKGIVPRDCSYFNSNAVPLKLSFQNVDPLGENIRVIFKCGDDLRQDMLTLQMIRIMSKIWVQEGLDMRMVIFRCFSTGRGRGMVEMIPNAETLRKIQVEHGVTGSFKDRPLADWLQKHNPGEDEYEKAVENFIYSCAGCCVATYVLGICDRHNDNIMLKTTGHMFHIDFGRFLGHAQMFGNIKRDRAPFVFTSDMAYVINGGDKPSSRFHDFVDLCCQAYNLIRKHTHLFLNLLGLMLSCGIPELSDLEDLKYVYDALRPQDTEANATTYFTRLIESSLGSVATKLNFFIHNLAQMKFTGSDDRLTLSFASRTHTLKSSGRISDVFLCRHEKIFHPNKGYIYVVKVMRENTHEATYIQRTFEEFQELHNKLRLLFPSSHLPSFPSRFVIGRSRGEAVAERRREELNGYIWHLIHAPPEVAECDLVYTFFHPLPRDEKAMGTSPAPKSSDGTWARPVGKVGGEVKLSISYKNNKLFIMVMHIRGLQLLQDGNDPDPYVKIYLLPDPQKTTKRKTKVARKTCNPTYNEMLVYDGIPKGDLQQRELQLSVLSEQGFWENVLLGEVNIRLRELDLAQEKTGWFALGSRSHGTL

[21] = test system: Mast/stem cell growth factor receptor Kit (Homo sapiens), P10721 [V559D,V654A]; details: Compound concentration 1000.0 nM
[22] = biological target: Casein kinase II subunit alpha (Homo sapiens) (UniProt P68400); details: Compound concentration 1000.0 nM
[23] = biological target: Casein kinase I isoform gamma-1 (Homo sapiens) (UniProt Q9HCP0); details: Compound concentration 1000.0 nM
[24] = biological target: Cyclin-dependent kinase-like 1 (Homo sapiens) (UniProt Q00532); details: Compound concentration 1000.0 nM
Cyclin-dependent kinase-like 1 (Homo sapiens), sequence (Q00532 whole entry): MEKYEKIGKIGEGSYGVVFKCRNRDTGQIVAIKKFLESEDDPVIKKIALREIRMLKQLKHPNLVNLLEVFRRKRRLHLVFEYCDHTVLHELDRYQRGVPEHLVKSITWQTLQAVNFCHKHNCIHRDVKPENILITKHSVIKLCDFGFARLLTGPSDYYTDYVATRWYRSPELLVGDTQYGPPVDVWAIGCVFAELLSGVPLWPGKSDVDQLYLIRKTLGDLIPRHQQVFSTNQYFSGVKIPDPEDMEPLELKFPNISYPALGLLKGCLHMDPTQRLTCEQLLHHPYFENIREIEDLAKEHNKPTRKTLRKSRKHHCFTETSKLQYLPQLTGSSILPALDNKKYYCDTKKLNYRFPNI

[25] = biological target: Serine/threonine-protein kinase pim-2 (Homo sapiens) (UniProt Q9P1W9); details: Compound concentration 1000.0 nM
[26] = biological target: Inhibitor of nuclear factor kappa-B kinase subunit beta (Homo sapiens) (UniProt O14920); details: Compound concentration 1000.0 nM
Inhibitor of nuclear factor kappa-B kinase subunit beta (Homo sapiens), sequence (O14920 whole entry): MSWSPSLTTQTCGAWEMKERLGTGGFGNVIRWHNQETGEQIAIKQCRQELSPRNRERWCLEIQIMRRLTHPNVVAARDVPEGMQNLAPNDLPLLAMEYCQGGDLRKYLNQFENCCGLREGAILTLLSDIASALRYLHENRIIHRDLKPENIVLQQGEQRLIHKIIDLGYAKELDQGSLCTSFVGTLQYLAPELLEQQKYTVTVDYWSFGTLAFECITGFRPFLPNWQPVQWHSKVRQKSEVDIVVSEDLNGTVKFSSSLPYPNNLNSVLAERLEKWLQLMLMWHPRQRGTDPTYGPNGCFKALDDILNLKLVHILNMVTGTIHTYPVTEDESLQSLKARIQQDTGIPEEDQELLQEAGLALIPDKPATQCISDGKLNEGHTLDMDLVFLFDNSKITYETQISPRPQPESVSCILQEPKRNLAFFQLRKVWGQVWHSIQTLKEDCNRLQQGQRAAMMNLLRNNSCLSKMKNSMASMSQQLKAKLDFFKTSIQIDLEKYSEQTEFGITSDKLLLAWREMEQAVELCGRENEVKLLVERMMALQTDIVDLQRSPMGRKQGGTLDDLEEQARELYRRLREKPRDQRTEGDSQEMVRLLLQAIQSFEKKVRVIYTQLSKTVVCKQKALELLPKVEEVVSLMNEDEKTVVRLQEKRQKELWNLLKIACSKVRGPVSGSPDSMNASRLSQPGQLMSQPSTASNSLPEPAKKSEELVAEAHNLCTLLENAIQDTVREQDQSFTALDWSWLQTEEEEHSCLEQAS

[27] = biological target: 1-phosphatidylinositol 3-phosphate 5-kinase (Homo sapiens) (UniProt Q9Y2I7); details: Compound concentration 1000.0 nM
[28] = biological target: Muscle, skeletal receptor tyrosine-protein kinase (Homo sapiens) (UniProt O15146); details: Compound concentration 1000.0 nM
[29] = biological target: Ribosomal protein S6 kinase alpha-4 (Homo sapiens) (UniProt O75676); details: Compound concentration 1000.0 nM
Ribosomal protein S6 kinase alpha-4 (Homo sapiens), sequence (O75676 whole entry, looked up): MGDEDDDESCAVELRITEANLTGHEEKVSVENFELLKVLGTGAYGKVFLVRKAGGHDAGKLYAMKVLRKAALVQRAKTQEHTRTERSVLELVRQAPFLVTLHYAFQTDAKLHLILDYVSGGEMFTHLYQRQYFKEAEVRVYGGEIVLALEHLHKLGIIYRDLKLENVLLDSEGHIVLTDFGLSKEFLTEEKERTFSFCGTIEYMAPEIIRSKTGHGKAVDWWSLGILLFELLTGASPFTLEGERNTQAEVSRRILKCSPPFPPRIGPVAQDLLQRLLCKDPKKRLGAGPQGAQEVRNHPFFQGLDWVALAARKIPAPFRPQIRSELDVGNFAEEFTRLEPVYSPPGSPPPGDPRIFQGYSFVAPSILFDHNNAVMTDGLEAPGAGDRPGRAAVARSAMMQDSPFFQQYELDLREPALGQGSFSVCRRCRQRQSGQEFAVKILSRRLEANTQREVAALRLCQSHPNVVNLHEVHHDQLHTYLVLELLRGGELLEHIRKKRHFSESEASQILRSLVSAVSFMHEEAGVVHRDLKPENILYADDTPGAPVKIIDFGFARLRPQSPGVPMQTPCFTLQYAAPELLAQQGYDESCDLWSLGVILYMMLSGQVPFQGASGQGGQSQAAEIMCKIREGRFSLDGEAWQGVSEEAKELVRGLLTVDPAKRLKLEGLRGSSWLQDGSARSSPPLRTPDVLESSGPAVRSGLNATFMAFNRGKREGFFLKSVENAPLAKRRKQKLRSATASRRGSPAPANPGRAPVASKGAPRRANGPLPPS

[30] = biological target: Serine/threonine-protein kinase Nek2 (Homo sapiens) (UniProt P51955); details: Compound concentration 1000.0 nM
[31] = biological target: MAP kinase-activated protein kinase 2 (Homo sapiens) (UniProt P49137); details: Compound concentration 1000.0 nM
[32] = biological target: Serine/threonine-protein kinase Nek9 (Homo sapiens) (UniProt Q8TD19); details: Compound concentration 1000.0 nM
[33] = biological target: Serine/threonine-protein kinase MRCK gamma (Homo sapiens) (UniProt Q6DT37); details: Compound concentration 1000.0 nM
[34] = biological target: Mitogen-activated protein kinase kinase kinase 3 (Homo sapiens) (UniProt Q99759); details: Compound concentration 1000.0 nM

CN(C)CC#Cc1ccc(OCCCc2sc(N3CCc4cccc(C(=O)Nc5nc6ccccc6s5)c4C3)nc2C(=O)O)c(F)c1 [A-1155463]
inactive: residual activity [1] 85% | residual activity [2] 98% | residual activity [3] 83% | residual activity [4] 100% | residual activity [5] 98% | inhibition [6] 11.3% | inhibition [7] 1.52% | residual activity [8] 88% | residual activity [9] 100% | residual activity [10] 93% | inhibition [11] 5.18% | inhibition [12] 2.01% | residual activity [13] 77% | residual activity [14] 71% | residual activity [15] 90% | residual activity [16] 80% | residual activity [17] 96% | residual activity [18] 99% | residual activity [19] 100% | residual activity [20] 100% | residual activity [21] 78% | residual activity [22] 100% | residual activity [23] 91% | residual activity [24] 100% | residual activity [25] 100% | residual activity [26] 72% | residual activity [27] 100% | residual activity [28] 84% | residual activity [29] 100% | residual activity [30] 92% | residual activity [31] 88% | residual activity [32] 95% | residual activity [33] 90% | residual activity [34] 90%
